Test results from patent US20220386611A1, “NOVEL HETEROARYL-TRIAZOLE COMPOUNDS AS PESTICIDES” (Bayer Aktiengesellschaft, priority 2019, published 2022).

Columns and labels:
Format in all cases: in vivo
[1] = system: green peach aphid (Myzus persicae); assay: Myzus persicae spray test; settings: foliar, 120 h, after 5 days, Chinese cabbage leaf disks
Protocol: Myzus persicae—spray test
(§1) Solvent: 78.0 parts by weight acetone • 1.5 parts by weight dimethylformamide
(§2) Emulsifier: alkylarylpolyglycol ether
(§3) To produce a suitable preparation of active compound, 1 part by weight of active compound is mixed with the stated amount of solvents and is diluted with water, containing an emulsifier concentration of 1000 ppm, to the desired concentration. Further test concentrations are prepared by dilution with emulsifier containing water.
Chinese cabbage (Brassica pekinensis) leaf disks infected with all instars of the green peach aphid (Myzus persicae), are sprayed with a preparation of the active ingredient of the desired concentration.
(§4) After 5 days mortality in % is determined. 100% means all aphids have been killed and 0% means none of the aphids have been killed.

[2] = system: fall armyworm larvae (Spodoptera frugiperda); assay: Spodoptera frugiperda spray test; settings: in Zea mays, 168 h
Protocol: Spodoptera frukiperda—Spray Test
as §1, §2, §3
Maize (Zea mays) leaf sections are sprayed with a preparation of the active ingredient of the desired concentration. Once dry, the leaf sections are infested with fall armyworm larvae (Spodoptera frugiperda).
After 7 days mortality in % is determined. 100% means all caterpillars have been killed and 0% means none of the caterpillars have been killed.

[3] = system: Anopheles funestus strain FUMOZ-R; assay: Anopheles funestus test (ANPHFU surface treatment & contact assay); settings: surface concentration 20 mg/m^2, 30 minutes exposure, 24 hours after contact, read-out: efficacy (mortality)
Protocol: Anopheles funestus Test (ANPHFU Surface Treatment & Contact Assay)
(§5) Solvent: Aceton+2000 ppm rapeseed oil methyl ester (RME)
(§6) In order to produce a sufficient, active ingredient containing solution it is necessary to solve the test compound in the solvent-mix (acetone at 2 mg/ml/RME 2000 ppm). This solution is pipetted onto a glazed tile and after evaporation of the acetone, adult mosquitoes of the species Anopheles funestus strain FUMOZ-R (Hunt et al., Med. Vet. Entomol. 2005 September; 19(3): 271-275) are placed onto the dried surface. The exposure time is 30 minutes. Mortality in percent (%) is determined 24 hours after contact of the insects to the treated surface. 100% mortality means that all tested insects are dead, whereas 0% means that no insect died.

[4] = system: Musca domestica strain WHO-N; assay: Musca domestica test (MUSCDO surface treatment & contact assay); settings: 24 hours after contact, read-out: efficacy (mortality); for mortality at 4 mg/m2: surface concentration 4 mg/m^2, 30 minutes exposure; for mortality at 20 mg/m2: surface concentration 20 mg/m^2, 30 minutes exposure
Protocol: Musca domestica Test (MUSCDO Surface Treatment & Contact Assay)
as §5
as §6, with “flies” for “mosquitoes”, “Musca domestica” for “Anopheles funestus”, “WHO-N” for “FUMOZ-R (Hunt et al., Med. Vet. Entomol. 2005 September; 19(3): 271-275)”

[5] = system: larvae of the banded cucumber beetle (Diabrotica balteata); assay: Diabrotica balteata spray test; settings: 168 h, 100 g/ha (=32 μg/well), after 7 days, wheat seeds, read-out: efficacy (seedlings grown like untreated, uninfected control)
Protocol: Diabrotica balteata—spray test
Solvent: 78.0 parts by weight of acetone
1.5 parts by weight of dimethylformamide
as §2
as §3, with “solvent,” for “solvents”, “and the concentrate” for “and”
Soaked wheat seeds (Triticum aestivum) are placed in a multiple well plate filled with agar and some water and are incubated for 1 day to germinate (5 seeds per well). The germinated wheat seeds are sprayed with a test solution containing the desired concentration of the active ingredient. Afterwards each unit is infected with 10-20 larvae of the banded cucumber beetle (Diabrotica balteata).
After 7 days efficacy in % is determined. 100% means all the seedlings have grown up like in the untreated, uninfected control; 0% means none of the seedlings have grown.

[6] = system: Aedes aegypti strain MONHEIM; assay: Aedes aegypti test (AEDSAE surface treatment & contact assay); settings: 24 hours after contact, read-out: efficacy (mortality); for mortality at 20 mg/m2: surface concentration 20 mg/m^2, 30 minutes exposure
Protocol: Aedes Aegypti Test (AEDSAE Surface Treatment & Contact Assay)
as §5
as §6, with “Aedes aegypti” for “Anopheles funestus”, “MONHEIM” for “FUMOZ-R (Hunt et al., Med. Vet. Entomol. 2005 September; 19(3): 271-275)”

[7] = system: green peach aphid (Myzus persicae); assay: Myzus persicae oral test; settings: 120 h
Protocol: Solvent: 100 parts by weight acetone
To produce a suitable preparation of active compound, 1 part by weight of active compound is mixed with the stated amount of solvent, and the concentrate is diluted with water to the desired concentration. 50 μL compound solution is filled in microtiter plates and 150 μL IPL41 insect medium (33%+15% sugar) is added to obtain a total volume of 200 μL per well. Afterwards the plates are sealed with parafilm through which a mixed population of the green peach aphid (Myzus persicae) can suck on the compound preparation.
as §4

[8] = system: adult brown dog ticks (Rhipicephalus sanguineus); assay: Rhipicephalus sanguineus in-vitro contact test with adult brown dog ticks; settings: 5 μg/cm^2 (=500 g/ha), after 48 hours, read-out: efficacy (ticks dead or moribund)
Protocol: Rhipicephalus sanguineus—In-Vitro Contact Tests with Adult Brown Dog Ticks
(§7) 9 mg compound is solved in 1 mL acetone and diluted with acetone to the desired concentration. 250 μL of the test solution is filled in 25 mL glass test tubes and homogeneously distributed on the inner walls by rotation and tilting on a shaking device (2 h at 30 rpm). With a compound concentration of 900 ppm, an inner surface of 44.7 cm^2 and a homogeneous distribution, a dose of 5 μg/cm^2 is achieved.
After the solvent has evaporated, each test tube is filled with 5-10 adult brown dog ticks (Rhipicephalus sanguineus), closed with a perforated lid and incubated in a lying position at room temperature and relative humidity. After 48 hours efficacy is determined. The ticks are patted on the ground of the tubes and are incubated on a heating plate at 45-50° C. for at most 5 minutes. Immotile or uncoordinated moving ticks, which are not able to escape the heat by climbing upwards, are marked as dead or moribund.
An efficacy of 100% means all ticks are dead or moribund; 0% means no ticks are dead or moribund.

[9] = system: adult engorged female ticks (Rhipicephalus microplus); assay: Rhipicephalus (Boophilus) microplus injection test; settings: 168 h, after 7 days, read-out: efficacy (infertile eggs); for pest or weed control at 0.004 mg: 4 μg/animal; for pest or weed control at 0.02 mg: 20 μg/animal
Protocol: Rhipicephalus (Boophilus) microplus—Injection Test
(§8) Solvent: dimethyl sulfoxide
To produce a suitable preparation of active compound, 10 mg of active compound are dissolved in 0.5 mL solvent, and the concentrate is diluted with solvent to the desired concentration.
Five adult engorged female ticks (Rhipicephalus microplus) are injected with 1 μL compound solution into the abdomen. The ticks are transferred into replica plates and incubated in a climate chamber.
After 7 days egg deposition of fertile eggs is monitored. Eggs where fertility is not visible are stored in a climate chamber till hatching after about 42 days. An efficacy of 100% means all eggs are infertile; 0% means all eggs are fertile.

[10] = system: Rhipicephalus microplus larvae (strain Parkhurst, resistant against synthetic pyrethroids); assay: Rhipicephalus (Boophilus) microplus in-vitro contact test, larval cattle tick; settings: 5 μg/cm^2 (=500 g/ha), after 48 hours, read-out: efficacy (larvae dead or moribund)
Protocol: Rhipicephalus (Boophilus) Microplus—In-Vitro Contact Tests Larval Cattle Tick (Strain Parkhurst, Resistant Against Synthetic Pyrethroids)
as §7
After the solvent has evaporated, each test tube is filled with 20-50 cattle tick larvae (Rhipicephalus microplus), closed with a perforated lid and incubated in a horizontal position at 85% relative humidity and 27° C. in an incubator. After 48 hours efficacy is determined. The larvae are patted on the ground of the tubes and negative geotactic behaviour is recorded.
An efficacy of 100% means all larvae are dead or moribund; 0% means no larvae are dead or moribund.

[11] = system: Blattella germanica strain PAULINIA; assay: Blattella germanica test (BLTTGE surface treatment & contact assay); settings: surface concentration 20 mg/m^2, 30 minutes exposure, 24 hours after contact, read-out: efficacy (mortality)
Protocol: Blattella germanica Test (BLTTGE Surface Treatment & Contact Assay)
as §5
as §6, with “animals” for “mosquitoes”, “Blattella germanica” for “Anopheles funestus”, “PAULINIA” for “FUMOZ-R (Hunt et al., Med. Vet. Entomol. 2005 September; 19(3): 271-275)”

[12] = system: adult unfed cat fleas (Ctenocephalides felis); assay: Ctenocephalides felis oral test; settings: 48 h
Protocol: Ctenocephalides felis—Oral Test
as §8
To produce a suitable preparation of active compound, 10 mg of active compound are dissolved in 0.5 ml solvent, and the concentrate is diluted with cattle blood to the desired concentration.
Approximately 20 adult unfed cat fleas (Ctenocephalides felis) are placed in flea chambers. The blood chamber, sealed with parafilm on the bottom, are filled with cattle blood supplied with compound solution and placed on the gauze covered top of the flea chamber, so that the fleas are able to suck the blood. The blood chamber is heated to 37° C. whereas the flea chamber is kept at room temperature.
After 2 days mortality in % is determined. 100% means all the fleas have been killed; 0% means none of the fleas have been killed.

[13] = system: adult cat fleas (Ctenocephalides felis); assay: Ctenocephalides felis in-vitro contact test, adult cat flea; settings: after 48 hours, read-out: efficacy (fleas dead or moribund)
Protocol: as §7, with “Ctenocephalides felis—In-Vitro Contact Tests Adult Cat Flea 9 mg” for “9 mg”
After the solvent has evaporated, each test tube is filled with 5-10 adult cat fleas (Ctenocephalidesfelis), closed with a perforated lid and incubated in a lying position at room temperature and relative humidity.
After 48 hours efficacy is determined. The fleas are patted on the ground of the tubes and are incubated on a heating plate at 45-50° C. for at most 5 minutes. Immotile or uncoordinated moving fleas, which are not able to escape the heat by climbing upwards, are marked as dead or moribund.
An efficacy of 100% means all fleas are dead or moribund; 0% means no fleas are dead or moribund.

[14] = system: larvae of the southern green stink bug (Nezara viridula); assay: Nezara viridula spray test; settings: 96 h, after 4 days, barley plants
Protocol: Nezara viridula—Spray Test
Solvent: 78.0 parts by weight of acetone • • 1.5 parts by weight of dimethylformamide
as §2
as §3, with “solvent,” for “solvents”, “and the concentrate” for “and”
Barley plants (Hordeum vulgare) infested with larvae of the southern green stink bug (Nezara viridula) are sprayed with a test solution containing the desired concentration of the active ingredient.
After 4 days mortality in % is determined. 100% means all the stink bugs have been killed; 0% means none of the stink bugs have been killed.

SMILES | mortality at 100 g/ha [1] [%] | mortality at 100 g/ha [2] [%] | mortality at 20 mg/m2 [3] [%] | mortality at 4 mg/m2 [4] [%] | mortality at 20 mg/m2 [4] [%] | pest or weed control at 32 µg/disc, 100 g/ha [5] [%] | mortality at 4 mg/m2 ([6]; surface concentration 4 mg/m^2, 30 minutes exposure) [%] | mortality at 20 mg/m2 [6] [%] | mortality at 4 ppm [7] [%] | pest or weed control at 5 µg/cm2, 500 g/ha [8] [%] | pest or weed control at 0.004 mg [9] [%] | pest or weed control at 0.02 mg [9] [%] | pest or weed control at 5 µg/cm2 [10] [%] | mortality at 20 mg/m2 [11] [%] | mortality at 100 ppm [12] [%] | pest or weed control at 1 µg/cm2, 100 g/ha ([13]; 1 μg/cm^2 (=100 g/ha)) [%] | pest or weed control at 5 µg/cm2, 500 g/ha ([13]; 5 μg/cm^2 (=500 g/ha)) [%] | mortality at 100 g/ha [14] [%]
CC(NC(=O)c1cc(Cl)cc(OC(F)(F)F)c1)c1nc(Cl)nn1-c1ncccn1 (racemic) [Example I-001, 3-chloro-N-[1-(5-chloro-2-pyrimidin-2-yl-1,2,4-triazol-3-yl)ethyl]-5-(trifluoromethoxy)benzamide] | 90 | 100 | 80 to 100 | 80 to 100 | 80 to 100 | 100 | 80 to 100 | 80 to 100 | 100 | – | – | – | – | – | – | – | – | –
CC(NC(=O)c1cc(Br)cc(C(F)(F)F)c1)c1nc(Cl)nn1-c1ncccn1 (stereo not shown) [Example I-003] | – | 100 | – | 80 to 100 | 80 to 100 | 100 | – | 80 to 100 | 100 | 100 | 100 | 100 | 100 | 80 to 100 | 100 | – | – | –
CC(NC(=O)c1cc(Cl)cc(C(F)(F)F)c1)c1nc(Br)nn1-c1ncccn1 (stereo not shown) [Example I-016] | – | 100 | 80 to 100 | – | – | 100 | – | 80 to 100 | 100 | – | 100 | – | 80 | 80 to 100 | 100 | – | – | –
CC(NC(=O)c1cc(Cl)nc(C(F)(F)F)c1)c1nc(I)nn1-c1ncccn1 (stereo not shown) [Example I-024] | – | – | – | – | – | 100 | – | – | – | 80 | – | – | 100 | – | – | 80 | 90 | 100
CC(NC(=O)c1cc(Cl)cc(C(F)(F)F)c1)c1nc(Br)nn1-c1ccc(Cl)cn1 (racemic) [Example I-018, N-[1-[5-bromo-2-(5-chloro-2-pyridyl)-1,2,4-triazol-3-yl]ethyl]-3-chloro-5-(trifluoromethyl)benzamide] | – | 83 | 80 to 100 | – | – | 100 | – | 80 to 100 | – | – | 80 | 100 | 80 | – | – | – | – | –
